Results on three compounds are retold here after US12667583B2, “Method for preventing or treating a cornavirus infectious disease” (HENAN GENUINE BIOTECH CO., LTD., priority 2020, dated 2026).

Structures are written as SMILES. “Also recorded” adds a separate entry of the source.

A word on the inhibition: it is how much of the control response was suppressed. For orientation: EC50 means the concentration at which the effect is half-maximal.

The subject of one series is 2019-nCoV (COVID-19). Kind of series: Inhibitory effect against 2019-nCoV (COVID-19) viruses in Huh 7 cell model, viral RNA by qRT-PCR. Format: cell-based. Particulars: for SI: CC50/EC50, Huh 7 cells; for EC50: viral RNA copies in supernatant, 48 h. Here is the method:
The antiviral activity assay was performed on a Huh 7 cell model. Three replicate wells were set for each assay and the assay was repeated three times in total.
1) In each well of a 24-well cell culture plate, 5×10^4 Huh 7 cells were inoculated. Under the culture conditions of 37° C. and 5% CO2, when the confluence reached 60%, 200 μL of 2019-nCoV (COVID-19) virus solution diluted with a DMEM medium containing 2% FBS were added to each well respectively according to the multiplicity of infection MOI of 0.005. After adsorption for 1 h in a 5% CO2 incubator at 37° C., the virus solution was discarded. The positive control drug and the Azvudine amine phosphate prodrug CL-236 were subjected to 2-fold dilution with a DMEM medium containing 2% FBS from the maximum non-toxic concentration, and added to the cell plate at 500 μL/well. Meanwhile, a control group (drug-free group) was set and the supernatant virus solution was collected at 48 h after infection.
2) RNA quantification of collected viruses by real-time RT-PCR (qRT-PCR):
From the collected supernatant virus solutions, 140 μL were measured separately, and subjected to RNA extraction according to the instruction of the QIAamp viral RNA mini kit. The qRT-PCR detection was carried out using the One Step TB Green PrimeScript PLUS RT-PCR Kit (Perfect Real Time), and the primers were RBD-qF1: 5′-[…]-3′ (SEQ. ID. NO. 1); and RBD-qR1:5′-[…]-3′(SEQ. ID. NO. 2).
The total volume of the reaction system was 20 μL:10 μL of 2× One Step TB Green RT-PCR Buffer 4, 1.2 μL of TaKaRa Ex Taq HS Mix, 0.4 μL of PrimeScript PLUS RTase Mix, 0.8 μL each of RBD-qF1 and RBD-qR1, 0.4 μL of ROX Reference Dye (50×), 2 μL of viral RNA, and 4.4 μL of RNase Free dH2O. The reaction parameters were as follows: reverse transcription at 42° C. for 5 min, pre-denaturation at 95° C. for 10 s, PCR for 40 cycles including denaturation at 95° C. for 10 s and annealing and extension at 60° C. for 30 s.
3) The inhibition rates of the drug at the concentrations were calculated. Inhibition rate (%)=1−viral RNA copies in experimental group/viral RNA copies in drug-free group×100%. At the same time, the median effective concentration (EC50) and therapeutic index (TI) of the drug were calculated, therapeutic index (TI)=concentration cytotoxicity 50% (CC50)/median effective concentration (EC50).

A further series is described as follows: in vitro. Particulars: human.
The test system of a further series is novel coronaviruses. Briefly: in vitro antiviral activity in MRC-5 cells infected with the novel coronaviruses. Format: cell-based. Particulars: MRC5. The text has this:
The inventors have determined the in vitro antiviral activity of Compound 1 in MRC-5 cells infected with the novel coronaviruses.

In the next series the test system is AIDS. The following applies: as an anti-AIDS drug; cited from earlier work.
The subject of series [1] is novel coronavirus (COVID-19) pneumonia. Kind of series: Clinical trial in patients with novel coronavirus (COVID-19) pneumonia. Particulars: for Clinical advantage versus control (nucleic acid clearance rate, course of clearance, cure rate, course of cure): compared with the conventional treatment (Kaletra control).
[2] abbreviates: Severe acute respiratory syndrome coronavirus 2, Huh 7 cells.
Setting [3] is: individual patients, 10 per group, Azvudine 5 mg daily oral, Kaletra + arbidol + interferon control.

For `CC(C)OC(=O)[C@H](C)NP(=O)(OCC1(N=[N+]=[N-])OC(n2ccc(N)nc2=O)C(F)C1O)Oc1ccccc1` (stereo partly shown) [CL-236], in the series with 2019-nCoV (COVID-19), the SI was 20.7. For the same compound, the inhibition at 0.1 µM with 2019-nCoV (COVID-19) (Severe acute respiratory syndrome coronavirus 2, 0.1 uM, Huh 7 cells, MOI 0.005, 48 h after infection, read-out: Virus Inhibition Rate (%)) is 9.38%. In addition, the inhibition at 0.4 µM in the series with 2019-nCoV (COVID-19) (Severe acute respiratory syndrome coronavirus 2, 0.4 uM, Huh 7 cells, MOI 0.005, 48 h after infection, read-out: Virus Inhibition Rate (%)) amounted to 18.8%. For the same compound, the inhibition at 1.6 µM in the series with 2019-nCoV (COVID-19) (Severe acute respiratory syndrome coronavirus 2, 1.6 uM, Huh 7 cells, MOI 0.005, 48 h after infection, read-out: Virus Inhibition Rate (%)) is 37.5%. For the same compound, in the series with 2019-nCoV (COVID-19) (Severe acute respiratory syndrome coronavirus 2, 6.4 uM, Huh 7 cells, MOI 0.005, 48 h after infection, read-out: Virus Inhibition Rate (%)), the inhibition at 6.4 µM was 65.6%. Moreover, in the series with 2019-nCoV (COVID-19) (Severe acute respiratory syndrome coronavirus 2, 25.6 uM, Huh 7 cells, MOI 0.005, 48 h after infection, read-out: Virus Inhibition Rate (%)), the inhibition at 25.6 µM was 75%. For the same compound, in the series with 2019-nCoV (COVID-19) (Severe acute respiratory syndrome coronavirus 2, 102.4 uM, Huh 7 cells, MOI 0.005, 48 h after infection, read-out: Virus Inhibition Rate (%)), the inhibition at 102.4 µM was 81.2%. The compound also displayed an EC50 with 2019-nCoV (COVID-19) (setting [2]) of 3.2 µM. For the same compound, the CC50 in “in vitro” came out at 66.2 µM.

The compound `[N-]=[N+]=NC1(CO)OC(n2ccc(N)nc2=O)C(F)C1O` (stereo not shown) [Compound 1, Azvudine] had an EC50 in the series on novel coronaviruses of 25 µM. Also, in the series on AIDS, the “Safety in phase II clinical trials” value is given as “good safety”. The “Clinical advantage versus control (nucleic acid clearance rate, course of clearance, cure rate, course of cure)” value in series [1] was “significant clinical therapeutic advantages”. In addition, in series [1] (listed as compound of formula (1)), the “Clinical advantage versus control (nucleic acid clearance rate, course of clearance, cure rate, course of cure)” value is “obvious advantages”. Besides, the “Drug-related toxic and side effects during the treatment” value in series [1] (human, in vivo) was “no drug-related toxic and side effects were found”. In series [1] (setting [3]), the “From inclusion confirmed by nucleic acid test to clearance” value is recorded as “Clearance: day 4; also recorded: Clearance: day 2; also recorded: one week; also recorded: Clearance: day 3” and the “From inclusion confirmed by nucleic acid test to discharge” value was “Discharge: day 7; also recorded: Discharge: day 6; also recorded: Discharge: day 8; also recorded: Discharge: day 5”. In series [1] (of 10 patients in the group), the “Patients discharged within 8 days” value was “seven” and the “Patients turned negative by the nucleic acid test” value is reported as 10. Further, the “Time to turn negative after start of treatment” value in series [1] (one patient who had failed supportive treatment with Kaletra) is given as “three days”.

On to `CCC(CC)COC(=O)[C@H](C)N[P@](=O)(OC[C@H]1O[C@@](C#N)(c2ccc3c(N)ncnn23)[C@H](O)[C@@H]1O)Oc1ccccc1` [Remdesivir, reference compound], for which the SI with 2019-nCoV (COVID-19) was greater than 30.0. Further, the concentration for a half-maximal effect (EC50) in the series on 2019-nCoV (COVID-19) (setting [2]) amounted to 1.5 µM. The same compound displayed a CC50 in “in vitro” greater than 45 µM.
